# Results as given in EP0006845A1, “Pharmaceutical composition comprising a 5-aroyl-1-C1-5 alkyl-pyrrole-2-acetic acid compound and acetaminophen or acetylsalicylic acid” (McNeilab, Inc., priority 1978, dated 1980).
# What was measured:
# [1] = system: adjuvant arthritic rats; assay: adjuvant arthritis test, evaluation of paw volume of the non-injected hind paw; assay type: in vivo, female Wistar, Lewis rats; conditions: for inhibition at 75 mg/kg: Aspirin 75 mg/kg/day alone; for inhibition at 150 mg/kg: Aspirin 150 mg/kg/day alone; for inhibition at 300 mg/kg: Aspirin 300 mg/kg/day alone; for inhibition at 50 mg/kg: Acetaminophen 50 mg/kg/day alone; for inhibition at 200 mg/kg: Acetaminophen 200 mg/kg/day alone; for inhibition at 800 mg/kg: Acetaminophen 800 mg/kg/day alone; for Percent Inhibition ± S.E. (Day 28): Table VII
# From the text: (§1) The efficacy of the novel combination of this invention in inhibiting inflammation and osteogenic degeneration is particularly seen in the adjuvant arthritis test. […] The adjuvant arthritis test, a test in which adjuvant arthritis which results both in inflammation and osteogenic changes is induced by Mycobacterium butvricum and in which the effect of the test compounds on each effect can be Determined, is considered to be .most useful for evaluation of compounds which may be suitable for the treatment of rheumatoid arthritis and other arthritic diseases. The test procedure, in which the effect on inflammation is determined by paw volume changes and the effect on osteogenic changes is determined by microscopic observation, is described by Wong et al, in J. Pharmacol.Exp.Ther. 185, 127-138, 1973, and is employed in the present determination of the potentiation of the antiarthritic properties of 5-aroyl-l-loweralkyl-pyrrole-2-acetic acid derivatives by aspirin or acetaminophen.
# (§2) Briefly, in this procedure, adjuvant arthritis is induced in female Wistar, Lewis rats (Charles River Breeding Laboratories. Inc., Wiimington, Mass.) weighing 160-190 gm by a single subcutaneous injection of 0.75 mg Mycobacterium butyricum (Difco) into the left hind paw. The non-injected hind paw remains a normal size for the first seven days. Swelling begins to appear in the non-injected paw of the first rats on Day 8. Using the paw volume determination technique (a technique in which rat paws are dippedin mercury to the hairline and the volume of displacement determined by a modified Van Arman mercury displacement method as described in the aforementioned paper of Wong et al), the time progress curve of volume changes in the non-injected (contralateral) paw is followed. […] The mean onset time for 100 rats is found to be 11.6 days with a standard deviation of 1.9 days and the frequency of onset time values distributed normally between Days 8 and 19. Thus, determinations of antiarthritic activity are made in the period Day 11 to Day 28.
# (§3) For determination of anti-inflammatory properties two different evaluations are made: (a) the evaluation of paw volume during the Phase II and Phase III periods and, (b) the evaluation of osteogenic (bone) degenration during the Phase IV period.
# For evaluation of paw volume, adjuvant arthritic rats with early but significant signs of arthritis in the contralateral paw are selected on Day 11 and randomly assigned to the various groups of 10 animals in each group. All test -animals are dosed-daily (per os) with the test compound, preferably as sodium salt, or in saline for 17 days (Days 11 to 27 inclusive). Control animals are dosed with an equivalent volume of saline. The paw volumes of the non-injected paws are determined initially on Day 11 and again on Days 15, 18, 22, 25, and 28. The paw volumes are then compared with normal paw volumes of adjuvant arthitic rats previously determined from a reference curve relating normal paw volume to body weight. The volume of each individual rat which is greater than the normal volume is utilized in the analysis of the data. Values for drug treated animals are expressed as a percent inhibition of the paw volume change relative to the mean value for saline controls. Data is evaluated statistically and ED50 values with 95 percent confidence limits are calculated. The method for statistical analysis is described in detail in the aforementioned paper of Wong et al. The term "ED50" refers to the dose of drug required to produce 50 percent antagonism of the paw volume changes observed in the saline treated adjuvant arthritis controls. Suppression of paw volume changes reflects anti-inflammatory and antiarthritic activity of a test drug.
# [2] = system: adjuvant arthritic rats; assay: adjuvant arthritis test, evaluation of bone degeneration (osteogenic changes) in the non-injected hind paw; assay type: in vivo, female Wistar, Lewis rats; conditions: for ED50: drug alone, suppression of osteogenic changes, data from several experiments pooled, read-out: ED50 and 95 percent C.L.
# From the text: as §1, §2, §3
# For evaluation of bone degenerations, normal and adjuvant arthritic rats are sacrificed under C02, after the paw volume measurements have been completed on Day 28. The hind legs are removed above the knees and skinned and the soft tissues dissected away with care to avoid injury to bone and articular structures. The leg bones are then immersed in 2 percent potassium hydroxide solution for approximately four to five days until the remaining soft tissues becomes properly macerated and/or transparent, and the bones are fully visible. The leg bones are stained with Alizarin Red (0.01 percent in 2 percent KOH) for eight hours, and then processed through increasing concentrations of glycerol in water (20, 40, 60, 80 and 100 percent) for purposes of clearing the tissues for microscopic observation. The distal end of the tibiae, the tarsals, metatarsals, phalanges, and sesamoids are evaluated under a Stereozoom Microscope (a special type of dissecting microscope, product of Bausch and Lomb).
# Osteogenic changes for each bone (in 31 bone categories) in the non-injected hind paw are graded on a scale of from 0 to 10 (increasing numerical value corresponding to increasing severity of bone degeneration). A total bone degeneration score is obtained (maximum score/paw = 310 points) and then expressed as a percent score. The mean percent score (95 percent confidence limits) for saline control groups from 26 experiments (184 animals) is found to be 53.4 (50.9-55.9). Percent score values for drug treated animals are expressed as a percent inhibition relative to the mean for the saline control group. Data is evaluated statistically and ED50 values with 95 percent confidence limits are calculated.
# [3] = Rattus norvegicus, 672 h, Day 28, read-out: Percent Inhibition ± S.E. (Day 28)
# [4] = Rattus norvegicus, 672 h, Table VIII, Day 28, read-out: Percent Inhibition ± S.E. (Day 28)
# [5] = Rattus norvegicus, 672 h, Table IX, Day 28, read-out: Percent Inhibition ± S.E. (Day 28)
# [6] = Rattus norvegicus, read-out: Percent Inhibition of Paw Volume ± S.E.
smiles,measurement,setting,value
"CC(=O)Oc1ccccc1C(=O)O [Aspirin, acetylsalicylic acid]",dose of Aspirin required to suppress the tolmetin ED50 by 50 percent,[1]; Aspirin given in combination with tolmetin,83.6 (60.5 - 101) mg/kg/day
same,inhibition at 25 mg/kg,"[1]; Rattus norvegicus, 672 h, Aspirin 25 mg/kg/day alone, Day 28, read-out: Percent Inhibition ± S.E. (Day 28)",16.4 ± 11.4%
same,inhibition at 75 mg/kg,[1]; [3],39.6 ± 3.6%
same,inhibition at 100 mg/kg,"[1]; Rattus norvegicus, 672 h, Aspirin 100 mg/kg/day alone, Day 28, read-out: Percent Inhibition ± S.E. (Day 28)",28.3 ± 8.2%
same,inhibition at 150 mg/kg,[1]; [3],34.2 ± 6%
same,inhibition at 300 mg/kg,[1]; [3],66.2 ± 6.3%
same,inhibition at 75 mg/kg,[1]; [4],4.1 ± 14.4%
same,inhibition at 150 mg/kg,[1]; [4],33.2 ± 7.6%
same,inhibition at 300 mg/kg,[1]; [4],28.9 ± 9.4%
same,ED50,"[1]; Rattus norvegicus, aspirin alone, data from several similar experiments pooled, read-out: ED50 and its 95 percent C.L.",322 mg/kg
same,inhibition at 25 mg/kg,"[2]; Rattus norvegicus, bone degeneration, Aspirin 25 mg/kg/day alone, read-out: Percent Inhibition ± S. E.",15.2 ± 12.6%
same,inhibition at 75 mg/kg,"[2]; Rattus norvegicus, bone degeneration, Aspirin 75 mg/kg/day alone, read-out: Percent Inhibition ± S. E.",29.5 ± 5.6%
same,inhibition at 100 mg/kg,"[2]; Rattus norvegicus, bone degeneration, Aspirin 100 mg/kg/day alone, read-out: Percent Inhibition ± S. E.",28.3 ± 8.2%
same,inhibition at 150 mg/kg,"[2]; Rattus norvegicus, bone degeneration, Aspirin 150 mg/kg/day alone, read-out: Percent Inhibition ± S. E.",22.9 ± 3.1%
same,inhibition at 300 mg/kg,"[2]; Rattus norvegicus, bone degeneration, Aspirin 300 mg/kg/day alone, read-out: Percent Inhibition ± S. E.",59.9 ± 5.4%
same,ED50,[2]; Rattus norvegicus,382 mg/kg
same,Percent Inhibition ± S. E.,"[2]; bone degeneration, Aspirin 25 mg/kg/day alone",20.1 ± 5.2%
"CC(=O)Nc1ccc(O)cc1 [Acetaminophen, acetaminophen]",inhibition at 50 mg/kg,[1]; [5],7.6 ± 6.1%
same,inhibition at 200 mg/kg,[1]; [5],29 ± 12.8%
same,inhibition at 800 mg/kg,[1]; [5],75.3 ± 3.9%
same,inhibition at 50 mg/kg,[1]; [6],0%
same,inhibition at 200 mg/kg,[1]; [6],27.2 ± 15.5%
same,inhibition at 800 mg/kg,[1]; [6],67.8 ± 5.7%
same,ED50,"[1]; Rattus norvegicus, po, 672 h, drug given alone per os, Day 28, read-out: ED50 Values and 95 Percent C.L.",576 mg/kg
same,minimal effective dose,"[1]; Rattus norvegicus, given alone, statistically significant difference (p<0.05) from saline treated controls, read-out: minimum effective dose (MED)",320 mg/kg/day
same,Percent Inhibition ± S.E. (Day 28),"[1]; Dose of Acetaminophen 100 alone, Day 28",2.7 ±17.4%
same,Percent Inhibition ± S.E. (Day 28),"[1]; Dose of Acetaminophen 200 alone, Day 28",6.6 ± 11.4%
same,Percent Inhibition ± S.E. (Day 28),"[1]; Dose of Acetaminophen 400 alone, Day 28",31.6 ± 6.1%
same,dose of acetaminophen required to suppress the tolmetin ED50 by 50 percent,[1]; acetaminophen given with tolmetin,35.3 (13.4-81.3) mg/kg/day
same,inhibition at 50 mg/kg,"[2]; Rattus norvegicus, Acetaminophen 50 mg/kg/day alone, read-out: Percent Inhibition of Bone Degeneration ± S.E.",0%
same,inhibition at 200 mg/kg,"[2]; Rattus norvegicus, Acetaminophen 200 mg/kg/day alone, read-out: Percent Inhibition of Bone Degeneration ± S.E.",12.6 ± 6.5%
same,inhibition at 800 mg/kg,"[2]; Rattus norvegicus, Acetaminophen 800 mg/kg/day alone, read-out: Percent Inhibition of Bone Degeneration ± S.E.",32.9 ± 3.4%
same,ED50,[2]; Rattus norvegicus,1670 mg/kg
